Type in all cases: cell-based
In one series the test system is HBsAg. Kind of series: PHH HBV natural infection assay, HBsAg (alphalisa). Here is the method: (§1) Detailed procedures regarding primary human hepatocyte (PHH) HBV natural infection assay are described as below. One tube of frozen PHH (10 million cells) is thawed in 37° C. water bath and then transferred to 20 mL of PHH thawing medium (Sigma, InVitroGRO HT Medium, Cat. S03319) with gently mixing. The cells were then centrifuged at […] for 5 min, the supernatant was discarded and the tube was refilled with 25 mL of PHH plating medium (Sigma, InVitroGRO CP Medium, Cat. S03317). The tube was shaken very gently to re-suspend all cells, and then 50 μl of cells were transferred to each well 384-well collagen I coated plate with appropriate liquid handling equipment, e.g. Integra VIAFLO384 or Agilent Bravo. The cells were then cultured for 24 hours in a cell incubator. For HBV infection, after PHH attachment on the culture plate, the plating medium was removed and replenished with PHH culture medium containing HBV virus. The PHH culture medium was prepared with Dulbecco's Modified Eagle Medium (DMEM)/F12 (1:1 in volume ratio) containing 10% fetal bovine serum (Gibco, Cat. 10099141), 5 ng/mL human epidermal growth factor (Gibco, Cat.PHG0311L), 20 ng/mL dexamethasone (Sigma, Cat.D4902-100 mg), 250 ng/mL human recombinant insulin (Gibco, Cat.41400045) and 100 U/mL penicillin. HBV virus at 200 genome equivalent (GE) per cell with 4% PEG8000 (Sigma, Cat.P1458) containing culture medium were added to the PHH culture medium for infection. The cells were then cultured for 24 hours in cell incubator. Then the cell culture supernatant was removed. The HBV-infected PHH were cultured with sandwich culture method with PHH culture medium containing 1% DMSO and 0.25 mg/mL matrix gel for 72 hours. The supernatant was then refreshed with PHH culture medium containing different concentrations of testing compounds for two times with 72-hour interval. At the end of treatment, the supernatant was collected for viral markers measurements, including HBsAg, HBeAg, HBV DNA and cytotoxicity. HBsAg and HBeAg were detected using alphalisa method using their specific antibodies. For HBV DNA detection, HBV DNA Quantitative Fluorescence Diagnostic Kit (Sansure Biotech Inc.) was used following the manufacture's protocol. Cytotoxicity was determined using Cell Counting Kit-8 (CCK8, Dojindo Molecular Technologies, Inc.).
(§2) The compounds of the present invention were tested for their capacity to inhibit HBsAg and HBeAg as described herein.

The subject of a further series is HBeAg. Briefly: PHH HBV natural infection assay, HBeAg (alphalisa). Here is the method: as §1, §2
A general note: Alpha assays give light when donor and acceptor beads are brought close together.

Series [1] can be described thus: PHH natural infection assay, cytotoxicity (Cell Counting Kit-8). As to conditions: human, HBV-infected primary human hepatocytes, CCK8, end of treatment. The protocol:
as §1
For orientation: Formazan colour is commonly taken as a measure of viable cells.

The mark [2] stands for this setting: Hepatitis B virus, Hepatocyte, 72 h, read-out: HBsAg IC50, HBV-infected primary human hepatocytes, supernatant, compound medium refreshed two times with 72-hour interval.
The mark [3] stands for this setting: Hepatitis B virus, Hepatocyte, 72 h, read-out: HbeAg IC50, HBV-infected primary human hepatocytes, supernatant, compound medium refreshed two times with 72-hour interval.

Experimental findings from patent US20230286969A1, “AROMATIC SPIRO RING AMIDE DERIVATIVES FOR THE TREATMENT AND PROPHYLAXIS OF HEPATITIS B VIRUS INFECTION” (Hoffmann-La Roche Inc., priority 2020, published 2023) are described below.

Structures are written as SMILES. Where two headings read alike, the source gives them in different places.

As usually defined, the IC50 is the concentration that inhibits the measured activity by half. The term CC50 denotes the concentration that lowers cell viability or growth by half. Lower therefore signals greater toxicity to the cells. As for `C[S+]([O-])c1ccc(C(=O)NC2CC3(C2)CC(c2nc4cc(Cl)ccc4o2)C3)o1` (stereo not drawn) [Example 14, N-[6-(5-chloro-1,3-benzoxazol-2-yl)spiro[3.3]heptan-2-yl]-5-methylsulfinyl-furan-2-carboxamide], the values for the IC50 with HBsAg (setting [2]) and in the series with HBeAg (setting [3]) were 1620 nM and 854 nM, respectively. This compound had a CC50 at 144 h in series [1] of 76500 nM.

Take `CC(C)C[S+]([O-])c1ccc(C(=O)NC2CC3(C2)CC(c2nc4cc(Cl)ccc4o2)C3)o1` (stereo not drawn) [Example 21, N-[6-(5-chloro-1,3-benzoxazol-2-yl)spiro[3.3]heptan-2-yl]-5-isobutylsulfinyl-furan-2-carboxamide]: the IC50 in the series with HBsAg (setting [2]) was 372 nM; in the series on HBeAg (setting [3]) it was 314 nM. In addition, in series [1], the CC50 at 144 h amounted to 92400 nM.

Consider `CCS(=O)(=O)c1ccc(C(=O)NC2CC3(C2)CC(c2nc4cc(Cl)ccc4o2)C3)o1` (stereo not drawn) [Example 16, N-[6-(5-chloro-1,3-benzoxazol-2-yl)spiro[3.3]heptan-2-yl]-5-ethylsulfonyl-furan-2-carboxamide], for which the IC50 with HBsAg (setting [2]) was found to be 1530 nM; in the series on HBeAg (setting [3]) it was 1030 nM. Besides, half-maximal cytotoxicity in series [1] (CC50 at 144 h) was put at 74000 nM.

With `O=C(N[C@H]1CC2(C1)C[C@H](c1nc3cc(Cl)ccc3o1)C2)c1ccc(S(=O)(=O)NC(=O)C2CC2)o1` (single isomer, unassigned) [Example 71, (Sa)—N-[6-(5-chloro-1,3-benzoxazol-2-yl)spiro[3.3]heptan-2-yl]-5-(cyclopropanecarbonylsulfamoyl)furan-2-carboxamide, or (Ra)—N-[6-(5-chloro-1,3-benzoxazol-2-yl)spiro[3.3]heptan-2-yl]-5-(cyclopropanecarbonylsulfamoyl)furan-2-carboxamide], the IC50 amounted to 3660 nM with HBsAg (setting [2]) and 3280 nM in the series with HBeAg (setting [3]). In series [1], this compound yielded a CC50 at 144 h above 100000 nM.

On to `CS(=N)(=O)c1ccc(C(=O)NC2CC3(C2)CC(c2nc4cc(Cl)ccc4o2)C3)o1` (single isomer, unassigned) [Example 52-a, N-[6-(5-chloro-1,3-benzoxazol-2-yl)spiro[3.3]heptan-2-yl]-5-(methylsulfonimidoyl)furan-2-carboxamide], for which the IC50 came out at 4260 nM with HBsAg (read-out: HBsAg IC50, HBV-infected primary human hepatocytes, supernatant, compound medium refreshed two times with 72-hour interval) and 1770 nM in the series with HBeAg (read-out: HbeAg IC50, HBV-infected primary human hepatocytes, supernatant, compound medium refreshed two times with 72-hour interval). This compound also displayed a CC50 at 144 h in series [1] above 100000 nM.

As to `NS(=O)(=O)CCc1ccc(C(=O)NC2CC3(C2)CC(c2nc4cc(Cl)ccc4o2)C3)o1` (stereo not drawn) [Example 34, N-[6-(5-chloro-1,3-benzoxazol-2-yl)spiro[3.3]heptan-2-yl]-5-(2-sulfamoylethyl)furan-2-carboxamide], the IC50 in the series with HBsAg (setting [2]) was 8780 nM; in the series with HBeAg (setting [3]) it was 5840 nM. For the same compound, the CC50 at 144 h in series [1] was above 100000 nM.

For the compound `CCS(=O)(=O)c1oc(C(=O)NC2CC3(C2)CC(c2nc4cc(Cl)ccc4o2)C3)cc1Br` (stereo not drawn) [Example 36, 4-bromo-N-[6-(5-chloro-1,3-benzoxazol-2-yl)spiro[3.3]heptan-2-yl]-5-ethylsulfonyl-furan-2-carboxamide], the IC50 in the series on HBsAg (setting [2]) came to 885 nM; in the series with HBeAg (setting [3]), 815 nM. This compound came in with a CC50 at 144 h in series [1] above 100000 nM.

Regarding `O=C(NC1CC2(C1)CC(c1nc3cc(Cl)ccc3o1)C2)c1ccc(S(=O)(=O)CC2CCC2)o1` (stereo not drawn) [Example 23, N-[6-(5-chloro-1,3-benzoxazol-2-yl)spiro[3.3]heptan-2-yl]-5-(cyclobutylmethylsulfonyl)furan-2-carboxamide], the IC50 turned out to be 321 nM with HBsAg (setting [2]) and 883 nM in the series with HBeAg (setting [3]). Besides, the CC50 at 144 h in series [1] is above 100000 nM.

On to `CC(C)CS(=O)(=O)c1ccc(C(=O)NC2CC3(C2)CC(c2nc4cc(Cl)ccc4o2)C3)o1` (stereo not drawn) [Example 22, N-[6-(5-chloro-1,3-benzoxazol-2-yl)spiro[3.3]heptan-2-yl]-5-isobutylsulfonyl-furan-2-carboxamide], for which the IC50 is 506 nM in the series on HBsAg (setting [2]) and 264 nM with HBeAg (setting [3]). In series [1], it took 75600 nM to reach half-maximal cytotoxicity (CC50 at 144 h).

On to `CCS(=O)(=O)c1cc(C)c(C(=O)NC2CC3(C2)CC(c2nc4cc(Cl)ccc4o2)C3)o1` (stereo not drawn) [Example 37, N-[6-(5-chloro-1,3-benzoxazol-2-yl)spiro[3.3]heptan-2-yl]-5-ethylsulfonyl-3-methyl-furan-2-carboxamide], for which the IC50 in the series on HBsAg (setting [2]) came to 9380 nM; in the series on HBeAg (setting [3]), 5720 nM. Besides, the CC50 at 144 h in series [1] is above 100000 nM.

As for `CCS(=N)(=O)Cc1ccc(C(=O)NC2CC3(C2)CC(c2nc4cc(Cl)ccc4o2)C3)o1` (stereo not drawn) [Example 58, N-[6-(5-chloro-1,3-benzoxazol-2-yl)spiro[3.3]heptan-2-yl]-5-[(ethylsulfonimidoyl)methyl]furan-2-carboxamide], the IC50 with HBsAg (setting [2]) was 8790 nM; in the series on HBeAg (setting [3]) it was 5880 nM. This compound had a CC50 at 144 h in series [1] above 100000 nM.

Regarding `CC(C)C(=O)NS(=O)(=O)c1ccc(C(=O)N[C@H]2CC3(C2)C[C@H](c2nc4cc(Cl)ccc4o2)C3)o1` (single isomer, unassigned) [Example 70, (Sa)—N-[6-(5-chloro-1,3-benzoxazol-2-yl)spiro[3.3]heptan-2-yl]-5-(2-methylpropanoylsulfamoyl)furan-2-carboxamide, or (Ra)—N-[6-(5-chloro-1,3-benzoxazol-2-yl)spiro[3.3]heptan-2-yl]-5-(2-methylpropanoylsulfamoyl)furan-2-carboxamide], the figures for the IC50 in the series with HBsAg (setting [2]) and with HBeAg (setting [3]) were 361 nM and 376 nM, respectively. For the same compound, in series [1], the CC50 at 144 h was above 100000 nM.

Consider `CS(=O)(=O)c1ccc(C(=O)NC2CC3(C2)CC(c2nc4cc(Cl)ccc4o2)C3)s1` (stereo not drawn) [Example 45, N-[6-(5-chloro-1,3-benzoxazol-2-yl)spiro[3.3]heptan-2-yl]-5-methylsulfonyl-thiophene-2-carboxamide], for which the values for the IC50 in the series on HBsAg (setting [2]) and with HBeAg (setting [3]) were 2210 nM and 1900 nM, respectively. In series [1], this compound showed a CC50 at 144 h above 100000 nM.

On to `O=C(NC1CC2(C1)CC(c1nc3cc(Cl)ccc3o1)C2)c1ccc(S(=O)(=O)C(F)(F)F)o1` (stereo not drawn) [Example 43, N-[6-(5-chloro-1,3-benzoxazol-2-yl)spiro[3.3]heptan-2-yl]-5-(trifluoromethylsulfonyl)furan-2-carboxamide], for which the 50% inhibitory concentration (IC50) in the series with HBsAg (setting [2]) turned out to be 1140 nM; in the series with HBeAg (setting [3]), 839 nM. Moreover, the CC50 at 144 h in series [1] was above 100000 nM.

Take `[H][C@]1(NC(=O)c2ccc([S@](=N)(=O)C3CC3)o2)C[C@]2(C1)C[C@]([H])(c1nc3cc(Cl)ccc3o1)C2` (stereo partly drawn) [Example 53-c, (Ra)—N-[6-(5-chloro-1,3-benzoxazol-2-yl)spiro[3.3]heptan-2-yl]-5-[(R)-cyclopropylsulfonimidoyl]furan-2-carboxamide]: the IC50 with HBsAg (setting [2]) came to 650 nM; in the series on HBeAg (setting [3]), 621 nM. Also, in series [1], the CC50 at 144 h came out at 91900 nM.

As to `O=C(NC1CC2(C1)CC(c1nc3cc(Cl)ccc3o1)C2)c1ccc(S2(=O)=NCCC2)o1` (stereo not drawn) [Example 61, N-[6-(5-chloro-1,3-benzoxazol-2-yl)spiro[3.3]heptan-2-yl]-5-(1-oxo-4,5-dihydro-3H-isothiazol-1-yl)furan-2-carboxamide], the IC50 in the series on HBsAg (setting [2]) is 3650 nM; in the series on HBeAg (setting [3]) it was 3140 nM. Also, the CC50 at 144 h in series [1] is above 100000 nM.

For the compound `O=C(NC1CC2(C1)CC(c1nc3cc(Cl)ccc3o1)C2)c1ccc([S+]([O-])CC2CC2)o1` (stereo not drawn) [Example 19, N-[6-(5-chloro-1,3-benzoxazol-2-yl)spiro[3.3]heptan-2-yl]-5-(cyclopropylmethylsulfinyl)furan-2-carboxamide], the figures for the IC50 in the series with HBsAg (setting [2]) and with HBeAg (setting [3]) were 36 nM and 45 nM, respectively. In series [1], this compound registered a CC50 at 144 h of 94500 nM.

Consider `COCC(=O)NS(=O)(=O)c1ccc(C(=O)N[C@H]2CC3(C2)C[C@H](c2nc4cc(Cl)ccc4o2)C3)o1` (single isomer, unassigned) [Example 73, (Sa)—N-[6-(5-chloro-1,3-benzoxazol-2-yl)spiro[3.3]heptan-2-yl]-5-[(2-methoxyacetyl)sulfamoyl]furan-2-carboxamide, or (Ra)—N-[6-(5-chloro-1,3-benzoxazol-2-yl)spiro[3.3]heptan-2-yl]-5-[(2-methoxyacetyl)sulfamoyl]furan-2-carboxamide], for which the 50% inhibitory concentration (IC50) in the series with HBsAg (setting [2]) was 416 nM; in the series on HBeAg (setting [3]), 256 nM. Also, the CC50 at 144 h in series [1] is above 100000 nM.
